Entries after “also recorded” stand apart in the source; their conditions may differ.
How the values were obtained:
[1] = Residence time in the vitreous after single intravitreal injection (WES and SPR competition assay); type: in vivo, cynomolgus monkeys
Protocol: To determine the residence time of mPEG(3 k)-Cp40, mPEG(1 k)-Cp40, Cp40-KK, and Cp40-KKK in the vitreous of cynomolgus macaques, these Cp40-based analogs were administered intravitreally (i.v.t.) to the animals after induction of light ketamine anesthesia (10-15 mg/kg, by intramuscular injection (i.m.)) and dilation of the pupils with tropicamide/phenylephrine ophthalmic solution (see Table 6 for study design).
For i.v.t. injection, the cynomolgus monkeys were anesthetized with a combination of ketamine (15-25 mg/kg, i.m.) and xylazine (2 mg/kg, i.m.) and the eye was cleaned with povidone-iodine solution. After application of oxybuprocaine hydrochloride solution (Benoxil® ophthalmic solution 0.4%) to the cornea as a local anesthetic, the Cp40-based analogs were administered to the animals by i.v.t. injection into either the right (G1, G3) or left (G2, G4) eye of each animal. Immediately following each injection, a single topical dose of 0.5% levofloxacin was administered. After i.v.t. injection of mPEG(3 k)-Cp40, mPEG(1 k)-Cp40, Cp40-KK, and Cp40-KKK, vitreous fluid samples (about 50 μL each) were withdrawn from Cp40-based analog-treated eyes on days 14, 28, 42, (G1, G2, G3, G4), 56, 73, 90 (G1, G2) (this was done either three times or six times). Samples were collected on ice and stored in a deep freezer (˜79.3 to −68.5° C.) until further analysis. […] Presence and concentration of the Cp40-based analogs was determined using either the simple western technology (WES, ProteinSimple, San Jose, CA), or surface plasmon resonance (SPR)-based real-time measurement of binding kinetics on a Cp40-KKK immobilized chip (see detailed methods below). Similar results with regard to the intravitreal residence time and concentration levels of the test compounds were obtained regardless of the quantification method selected.
To quantify the levels of all test compounds in vitreous samples collected at different time points following i.v.t. injection (see FIG. 15), WES analysis was performed on a WES instrument (ProteinSimple, San Jose, CA) using a 2 to 40 kDa Separation Module and Anti-Rabbit Detection Module according to the manufacturers' instructions. […] The resulting electropherograms were evaluated using the Compass software (ProteinSimple, San Jose, CA). The following criteria were used to discriminate low peptide signals from background: The peak signal-to-noise (S/N) ratio given by the software must be ≥10, and the peak height/baseline ratio (calculated manually from the peak height and baseline values given by the software) must be equal to or greater than 3. […] Shown in FIG. 15 is a representative standard curve generated using the WES system and bands obtained upon running pre-determined amounts of purified peptide spiked into rabbit vitreous samples. […]

[2] = system: complement classical pathway; assay: Classical pathway activation (C3b deposition) ELISA in human plasma with or without rabbit vitreous; type: biochemical; conditions: in the absence of vitreous
Protocol: An alternative explanation to the one presented above is that the vitreous contains additional unidentified factors that associate with the Cp40-KKK analog. To investigate whether an unidentified vitreous factor impacts the complement inhibitory activity of lysine containing compounds, complement activation assays were performed using vitreous samples. Briefly, human plasma was incubated with OVA-anti-OVA immune-complexes in the presence of serial dilutions of the Cp40-based analogs mixed with rabbit vitreous. Levels of classical pathway activation (C3b deposition) were determined by ELISA using a polyclonal anti-human C3 antibody conjugated with HRP (MP Biomedicals, Solon, OH) (FIG. 20).

CC[C@H](C)[C@H](NC(=O)[C@H](N)Cc1ccc(O)cc1)C(=O)N[C@H]1CSSC[C@@H](C(=O)N(C)[C@H](C(=O)N[C@@H](CCCCN)C(=O)N[C@@H](CCCCN)C(=O)N[C@@H](CCCCN)C(N)=O)[C@@H](C)CC)NC(=O)[C@H](CCCNC(=N)N)NC(=O)[C@H](Cc2c[nH]cn2)NC(=O)[C@H](C)NC(=O)CN(C)C(=O)[C@H](Cc2c[nH]c3ccccc23)NC(=O)[C@H](CC(=O)O)NC(=O)[C@H](CCC(N)=O)NC(=O)[C@H](Cc2cn(C)c3ccccc23)NC(=O)[C@H](C(C)C)NC1=O [Cp40-KKK, DTyr-Ile-[Cys-Val-Trp(Me)-Gln-Asp-Trp-Sar-Ala-His-Arg-Cys]-mlle-Lys-Lys-Lys—NH2]
vitreous residence at C3 saturating levels ([1]; single i.v.t. 0.5 mg): ≥ 90 days | detection in vitreous over time ([1]; single i.v.t. 500 μg, days 14-90): detected even at day 90 post-treatment; also recorded: remained stable during the 73-day observation period | complement classical pathway inhibitory activity [2]: inhibitory activity in a dose-dependent manner

Reference: US11884747B2, “Compstatin analogs with increased solubility and improved pharmacokinetic properties” (The Trustees of the University of Pennsylvania, priority 2018, dated 2024)
